According to PubChem BioAssay (NCI):
Several values for one entry are separate records, joined by “and”; a condition that tells them apart may be missing. Equal values may be shown once.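 Cultured in 96-well plates, cells were exposed to test compound for 48 hours across five concentrations. GI50: concentration for 50% inhibition of growth. TGI is the concentration that stops growth completely.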

How the values were obtained:
Assay in all cases: inhibition of tumour cell growth, NCI panel, 48 h
A498 renal = tested on: A498 renal
COLO 205 colon = tested on: COLO 205 colon
KM12 colon = tested on: KM12 colon
MDA-MB-231 breast = tested on: MDA-MB-231 breast
MOLT-4 leukemia = tested on: MOLT-4 leukemia
OVCAR-4 ovarian = tested on: OVCAR-4 ovarian
SK-MEL-2 melanoma = tested on: SK-MEL-2 melanoma
SNB-75 CNS = tested on: SNB-75 CNS
DLD-1 colon = tested on: DLD-1 colon
DMS 273 small cell lung = tested on: DMS 273 small cell lung
LXFL 529 NSCLC = tested on: LXFL 529 NSCLC
DMS 114 small cell lung = tested on: DMS 114 small cell lung

| SMILES | GI50 (A498 renal) | TGI (A498 renal) | GI50 (COLO 205 colon) | TGI (COLO 205 colon) | GI50 (KM12 colon) | TGI (KM12 colon) | GI50 (MDA-MB-231 breast) | TGI (MDA-MB-231 breast) | GI50 (MOLT-4 leukemia) | TGI (MOLT-4 leukemia) | GI50 (OVCAR-4 ovarian) | TGI (OVCAR-4 ovarian) | GI50 (SK-MEL-2 melanoma) | TGI (SK-MEL-2 melanoma) | GI50 (SNB-75 CNS) | TGI (SNB-75 CNS) | TGI (DLD-1 colon) [µM] | TGI (DMS 273 small cell lung) [µM] | TGI (LXFL 529 NSCLC) [µM] | TGI (DMS 114 small cell lung) [µM] |
| --- | --- | --- | --- | --- | --- | --- | --- | --- | --- | --- | --- | --- | --- | --- | --- | --- | --- | --- | --- | --- |
| NS(=O)(=O)c1ccc(N=Nc2c(O)[nH]c3ccc(C(=O)NCCc4cnc[nH]4)cc23)cc1 | > 25 µM | > 25 µM | > 25 µM | > 25 µM | > 25 µM | > 25 µM | > 25 µM | > 25 µM | > 25 µM | > 25 µM | > 25 µM | > 25 µM | > 25 µM | > 25 µM | > 25 µM | > 25 µM |  |  |  |  |
| COc1ccc(Cc2cc(OC)c(OC)c(OC)c2)cc1 |  | 24.6 µM |  | 1.51 µM |  | > 100 µM |  | > 30.7 µM |  | 23.9 µM |  | > 100 µM |  | 41.4 µM |  | > 18.5 µM | > 100 | > 100 | > 100 |  |
| Cc1cc(I)cc(CNCCN2CCOCC2)c1O | > 100 µM | > 100 µM | > 100 µM | > 100 µM | 86.8 µM | > 100 µM | > 100 µM | > 100 µM | > 100 µM | > 100 µM | > 100 µM | > 100 µM | > 100 µM | > 100 µM | 75.6 µM | > 100 µM |  |  |  |  |
| C=C1C[C@@H](O)[C@@H](Br)C(C)(C)[C@]12CCC(C)(Br)C(Cl)C2 (some centres not stated) | 18 µM | > 50 µM and 31.9 µM | 0.627 µM | 1.71 µM and 2.09 µM | 0.28 µM | 16.7 µM and 10.5 µM | 16.8 µM | > 50 µM and 31.5 µM | 14.2 µM | > 50 µM and 34.5 µM | 15.7 µM | > 50 µM and 32.9 µM | 16.5 µM | > 50 µM and 30.4 µM | 18.5 µM | > 50 µM and 34.6 µM |  |  |  |  |
| COc1cc(N2CCN(C(C)C)CC2)ccc1Nc1nc(Nc2ccc(F)cc2C(=O)NCC(O)CO)c2cc[nH]c2n1 (configuration not stated) | 2.5 µM | > 25 µM | 0.526 µM | > 9.9 µM | 10.6 µM | > 25 µM | 13.6 µM | > 25 µM | 8.68 µM | > 25 µM | > 25 µM | > 25 µM | 4.18 µM | > 23.6 µM | 13.3 µM | > 25 µM |  |  |  |  |
| O=C(CN1CCN(CCN2C(=O)c3cccc4cccc(c34)C2=O)CC1)Nc1ccc2ncsc2c1 | 22.3 µM | > 100 µM | 5.44 µM | 54.6 µM | 6.16 µM | 25.4 µM | > 100 µM | > 100 µM | 2.87 µM | 15.3 µM | 11.3 µM | 26.5 µM | 6.49 µM | 23.6 µM | 9.44 µM | > 100 µM |  |  |  |  |
| CC(=O)NNc1nc(C)c(C(/C=C/c2ccc(Cl)cc2)=N\N=C(N)N)s1 |  |  |  | > 100 µM |  | > 100 µM |  |  |  | > 100 µM |  | > 100 µM |  |  |  | > 100 µM | > 100 | > 100 | > 100 |  |
| CCSc1nc(NC(C)c2ccccc2)c2cnn(CO)c2n1 (configuration not stated) | 27 µM | > 100 µM | > 100 µM | > 100 µM | 42.1 µM | > 100 µM | 61.8 µM | > 100 µM | > 100 µM | > 100 µM | 86.4 µM | > 100 µM | > 100 µM | > 100 µM | > 100 µM | > 100 µM |  |  |  |  |
| CC(C)n1nc(C#Cc2cccc(O)c2)c2c(N)ncnc21 | 1.56 µM and 1.71 µM | 6.5 µM and 4.29 µM | 1.53 µM and 1.89 µM | 12.7 µM and 13.2 µM | 1.75 µM and 2.33 µM | 25.8 µM and 60.8 µM | 0.508 µM and 0.0966 µM | 2.07 µM and 2.15 µM | 1.2 µM and 0.412 µM | 9.4 µM and 4.7 µM | 1.34 µM and 1.74 µM | 7.4 µM and 6.17 µM | 0.721 µM and 0.751 µM | 2.69 µM and 3.11 µM | 0.161 µM and 0.442 µM | 1.12 µM and 2.09 µM |  |  |  |  |
| Cc1ccc2nc(Sc3c([N+](=O)[O-])ncn3C)[nH]c2c1 |  | 83.2 µM |  | 27.8 µM |  | > 100 µM |  |  |  | 31.1 µM |  | 79.2 µM |  |  |  | 89.3 µM | 49.8 | 40.1 |  | 28.9 |
| CC(=O)N(C)c1cc(NCc2ccccc2)ccc1OCc1ccccc1 |  | 30.8 µM |  | 54.8 µM |  | 47.4 µM |  | 30.2 µM |  | 50.4 µM |  | 36.6 µM |  | 30.8 µM |  | 41.5 µM |  |  |  |  |
| O=C(NCCCl)NCCN1c2nc3ccccc3cc2Sc2cc3ccccc3nc21 | 4.58 µM | 24.7 µM | 1.32 µM | 2.66 µM | 2.67 µM | 16.1 µM | 2.71 µM | 17.8 µM | 0.861 µM |  | 0.9 µM | > 23.4 µM | 2.21 µM | 8.53 µM | 0.558 µM | 5.47 µM |  |  |  |  |
| CCOC(=O)Nc1ccc2nc(N3CCCCCC3)sc2c1 | 2.1 µM | 32.2 µM | 1.35 µM | > 59 µM | 0.661 µM | > 57.5 µM | 3.19 µM | > 56.8 µM | 3.47 µM | > 92.9 µM | 23.7 µM | > 100 µM | 2.67 µM | > 72.5 µM | 2.07 µM | > 31.4 µM |  |  |  |  |
| CCC(CC)c1cc(N[C@H]2CC[C@H](N)C2)n2nccc2n1 | 2.53 µM | > 100 µM | 0.732 µM | 2.41 µM | 1.7 µM | > 100 µM | 1.05 µM | > 100 µM | 1.36 µM | > 100 µM | 0.978 µM | 22.8 µM | 1.64 µM | 3.64 µM | 1.28 µM | 3.32 µM |  |  |  |  |
| COc1ccc(C2CC(c3ccccc3)=NN2C(=O)c2cc(OC)c(OC)c(OC)c2)cc1O (configuration not stated) | 0.618 µM | 19.4 µM | 2.96 µM | 10.4 µM | 0.371 µM | 24.1 µM | 0.902 µM | 18.1 µM | 0.469 µM | 16.2 µM | 0.596 µM | > 100 µM | 4.74 µM | > 42 µM | 0.422 µM | > 100 µM |  |  |  |  |
| CCNC(=O)Oc1ccc(/C(=C(\C)c2ccc(Cl)cc2)c2ccc(OCCN(CC)CC)cc2)cc1 | 14.3 µM | 29.6 µM | 1.94 µM | 3.94 µM | 4.22 µM | 15.5 µM | 3.02 µM | 8.17 µM | 3.07 µM | 11 µM | 3.65 µM | 17.3 µM | 5.01 µM | 17.6 µM | 2.45 µM | 18.4 µM |  |  |  |  |
